Assay results reported in patent publication US8309718B2, “4-pyrazolyl-N-arylpyrimidin-2-amines and 4-pyrazolyl-N-heteroarylpyrimidin-2-amines as janus kinase inhibitors” (Incyte Corporation, priority 2007, dated 2012).

The compounds below were run against T1, human JAK2 (Homo sapiens, UniProt O60674) (assay: In vitro JAK kinase assay (HTRF, phosphorylation of biotinylated peptide)). Settings: catalytic domain a.a. 828-1132, 30 μM ATP, 500 nM peptide, room temperature 1 hr; read-out: JAK-2 IC50.
T1 construct: JAK2 (a.a. 828-1132); His tag (N); made in house; host or cells: insect cells (baculovirus)
T1 sequence (O60674 828-1132): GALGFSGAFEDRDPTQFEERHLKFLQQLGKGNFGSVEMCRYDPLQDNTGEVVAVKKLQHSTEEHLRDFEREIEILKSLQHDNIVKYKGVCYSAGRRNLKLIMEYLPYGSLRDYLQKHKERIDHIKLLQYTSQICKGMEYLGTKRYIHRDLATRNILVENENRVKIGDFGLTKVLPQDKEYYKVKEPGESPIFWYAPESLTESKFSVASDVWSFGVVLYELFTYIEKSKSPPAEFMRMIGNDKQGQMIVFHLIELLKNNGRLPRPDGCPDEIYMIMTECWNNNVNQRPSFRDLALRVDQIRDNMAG
Assay type: biochemical
Procedure, shortened: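 IC50 from HTRF detection (Eu-Py20 antibody, SA-APC) of biotinylated-peptide phosphorylation (500 nM), run 1 h at RT. Enzyme: N-His human JAK2 kinase domain a.a. 828-1132 from insect cells; ATP 30 μM; buffer 50 mM Tris pH 7.8 with NaCl, DTT, BSA.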

Row | SMILES | IC50 [nM]
1 | COc1cnc(Nc2cccc(C(=O)NCc3cc(C)on3)c2)nc1-c1cnn(C(CC#N)C2CC2)c1 (racemic) [Example 333, 3-({4-[1-(2-cyano-1-cyclopropylethyl)-1H-pyrazol-4-yl]-5-methoxypyrimidin-2-yl}amino)-N-[(5-methylisoxazol-3-yl)methyl]benzamide] | < 100
2 | COc1cnc(Nc2cccc(C(=O)N3CCC3)c2)nc1-c1cnn(C(CC#N)C2CC2)c1 (racemic) [Example 334, 3-[4-(2-{[3-(azetidin-1-ylcarbonyl)phenyl]amino}-5-methoxypyrimidin-4-yl)-1H-pyrazol-1-yl]-3-cyclopropylpropanenitrile] | < 100
3 | COc1cnc(Nc2cccc(N3CCCS3(=O)=O)c2)nc1-c1cnn(C(CC#N)C2CC2)c1 (racemic) [Example 346, 3-cyclopropyl-3-[4-(2-{[3-(1,1-dioxidoisothiazolidin-2-yl)phenyl]amino}-5-methoxypyrimidin-4-yl)-1H-pyrazol-1-yl]propanenitrile] | < 100
4 | COc1cnc(Nc2cccnc2)nc1-c1cnn(C(CC#N)CC2CCN(C(=O)c3ccc(F)cc3F)CC2)c1 (racemic) [Example 347, 4-[1-(2,4-difluorobenzoyl)piperidin-4-yl]-3-{4-[5-methoxy-2-(pyridin-3-ylamino)pyrimidin-4-yl]-1H-pyrazol-1-yl}butanenitrile] | < 100
5 | Cc1cc(OC2CCC(CC#N)(n3cc(-c4ccnc(Nc5ccc(N6CCOCC6)cc5)n4)cn3)CC2)no1 (single isomer, unassigned) [Example 212, 2-(4-(5-methylisoxazol-3-yloxy)-1-(4-(2-(4-morpholinophenylamino)pyrimidin-4-yl)-1H-pyrazol-1-yl)cyclohexyl)acetonitrile] | < 100
6 | CC1(C)NC(=O)O[C@]12CCN(C(=O)c1ccc(Nc3nccc(-c4cnn(C(CC#N)C5CCCC5)c4)n3)cc1)C2 (single isomer, unassigned) [Example 219, 3-cyclopentyl-3-(4-(2-(4-((S*)-4,4-dimethyl-2-oxo-1-oxa-3,7-diazaspiro[4.4]nonane-7-carbonyl)phenylamino)pyrimidin-4-yl)-1H-pyrazol-1-yl)propanenitrile] | < 100
7 | Cc1cc(OC2CCC(CC#N)(n3cc(-c4ccnc(Nc5ccc(N6CCOCC6=O)cc5)n4)cn3)CC2)no1 (single isomer, unassigned) [Example 244, 2-(4-(5-methylisoxazol-3-yloxy)-1-(4-(2-(4-(3-oxomorpholino)phenylamino)pyrimidin-4-yl)-1H-pyrazol-1-yl)cyclohexyl)acetonitrile] | < 100
8 | Cc1cc(OC2CCC(CC#N)(n3cc(-c4ccnc(Nc5ccc(N6CCCCC6=O)cc5)n4)cn3)CC2)no1 (single isomer, unassigned) [Example 245, 2-(4-(5-methylisoxazol-3-yloxy)-1-(4-(2-(4-(2-oxopiperidin-1-yl)phenylamino)pyrimidin-4-yl)-1H-pyrazol-1-yl)cyclohexyl)acetonitrile] | < 100
9 | Cc1cc(OC2CCC(CC#N)(n3cc(-c4ccnc(Nc5ccc(-n6cccn6)cc5)n4)cn3)CC2)no1 (single isomer, unassigned) [Example 246, 2-(1-(4-(2-(4-(1H-pyrazol-1-yl)phenylamino)pyrimidin-4-yl)-1H-pyrazol-1-yl)-4-(5-methylisoxazol-3-yloxy)cyclohexyl)acetonitrile] | < 100
10 | Cc1cc(OC2CCC(CC#N)(n3cc(-c4ccnc(Nc5cccc(-c6cnco6)c5)n4)cn3)CC2)no1 (single isomer, unassigned) [Example 247, 2-(4-(5-methylisoxazol-3-yloxy)-1-(4-(2-(3-(oxazol-5-yl)phenylamino)pyrimidin-4-yl)-1H-pyrazol-1-yl)cyclohexyl)acetonitrile] | < 100
11 | N#CCC1(n2cc(-c3ccnc(Nc4ccc(N5CCOCC5)cc4)n3)cn2)CC(C#N)C1 (single isomer, unassigned) [Example 248, 3-(cyanomethyl)-3-(4-(2-(4-morpholinophenylamino)pyrimidin-4-yl)-1H-pyrazol-1-yl)cyclobutanecarbonitrile] | < 100
12 | N#CCC1(n2cc(-c3ccnc(Nc4ccc(C(=O)N5CCOCC5)cc4)n3)cn2)CC(C#N)C1 (single isomer, unassigned) [Example 287, 3-(cyanomethyl)-3-(4-(2-(4-(morpholine-4-carbonyl)phenylamino)pyrimidin-4-yl)-1H-pyrazol-1-yl)cyclobutanecarbonitrile] | < 100
13 | N#CCC1(n2cc(-c3ccnc(Nc4ccc(C(=O)N5CCCC5)cc4)n3)cn2)CC(C#N)C1 (single isomer, unassigned) [Example 288, 3-(cyanomethyl)-3-(4-(2-(4-(pyrrolidine-1-carbonyl)phenylamino)pyrimidin-4-yl)-1H-pyrazol-1-yl)cyclobutanecarbonitrile] | < 100
14 | N#CCC1(n2cc(-c3ccnc(Nc4ccc(C(=O)NC5CCOCC5)cc4)n3)cn2)CC(C#N)C1 (single isomer, unassigned) [Example 289, 4-(4-(1-(3-cyano-1-(cyanomethyl)cyclobutyl)-1H-pyrazol-4-yl)pyrimidin-2-ylamino)-N-(tetrahydro-2H-pyran-4-yl)benzamide] | < 100
15 | N#CCC1(n2cc(-c3ccnc(Nc4ccc(C(=O)N5CC[C@@H](O)C5)cc4)n3)cn2)CC(C#N)C1 (single isomer, unassigned) [Example 290] | < 100
16 | Cc1cc(CNC(=O)c2ccc(Nc3nccc(-c4cnn(C5(CC#N)CC(C#N)C5)c4)n3)cc2)no1 (single isomer, unassigned) [Example 291, 4-(4-(1-(3-cyano-1-(cyanomethyl)cyclobutyl)-1H-pyrazol-4-yl)pyrimidin-2-ylamino)-N-((5-methylisoxazol-3-yl)methyl)benzamide] | < 100
17 | N#CCC1(n2cc(-c3ccnc(Nc4ccc(C(=O)N5CCC5)cc4)n3)cn2)CC(C#N)C1 (single isomer, unassigned) [Example 292, 3-(4-(2-(4-(azetidine-1-carbonyl)phenylamino)pyrimidin-4-yl)-1H-pyrazol-1-yl)-3-(cyanomethyl)cyclobutanecarbonitrile] | < 100
18 | CN1CCN(C(=O)c2ccc(Nc3nccc(-c4cnn(C5(CC#N)CC(C#N)C5)c4)n3)cc2)CC1 (single isomer, unassigned) [Example 293, 3-(cyanomethyl)-3-(4-(2-(4-(4-methylpiperazine-1-carbonyl)phenylamino)pyrimidin-4-yl)-1H-pyrazol-1-yl)cyclobutanecarbonitrile] | < 100
19 | N#CCC1(n2cc(-c3ccnc(Nc4ccc(C(=O)N5CC[C@H](F)C5)cc4)n3)cn2)CC(C#N)C1 (single isomer, unassigned) [Example 294] | < 100
20 | COC1CCN(C(=O)c2ccc(Nc3nccc(-c4cnn(C5(CC#N)CC(C#N)C5)c4)n3)cc2)CC1 (single isomer, unassigned) [Example 295, 3-(cyanomethyl)-3-(4-(2-(4-(4-methoxypiperidine-1-carbonyl)phenylamino)pyrimidin-4-yl)-1H-pyrazol-1-yl)cyclobutanecarbonitrile] | < 100
21 | CO[C@H]1CCN(C(=O)c2ccc(Nc3nccc(-c4cnn(C5(CC#N)CC(C#N)C5)c4)n3)cc2)C1 (single isomer, unassigned) [Example 296] | < 100
22 | CC(=O)N1CCN(C(=O)c2ccc(Nc3nccc(-c4cnn(C5(CC#N)CC(C#N)C5)c4)n3)cc2)CC1 (single isomer, unassigned) [Example 298, 3-(4-(2-(4-(4-acetylpiperazine-1-carbonyl)phenylamino)pyrimidin-4-yl)-1H-pyrazol-1-yl)-3-(cyanomethyl)cyclobutanecarbonitrile] | < 100
23 | N#CCC1(n2cc(-c3ccnc(Nc4ccc(C(=O)N5CCC(O)CC5)cc4)n3)cn2)CC(C#N)C1 (single isomer, unassigned) [Example 301, 3-(cyanomethyl)-3-(4-(2-(4-(4-hydroxypiperidine-1-carbonyl)phenylamino)pyrimidin-4-yl)-1H-pyrazol-1-yl)cyclobutanecarbonitrile] | < 100
24 | N#CCC1(n2cc(-c3ccnc(Nc4ccc(OCCN5CCCC5)cc4)n3)cn2)CC(C#N)C1 (single isomer, unassigned) [Example 307, 3-(cyanomethyl)-3-[4-(2-{[4-(2-pyrrolidin-1-ylethoxy)phenyl]amino}pyrimidin-4-yl)-1H-pyrazol-1-yl]cyclobutanecarbonitrile] | < 100
25 | N#CCC1(n2cc(-c3ccnc(Nc4ccc(N5CCCCC5=O)cc4)n3)cn2)CC(C#N)C1 (single isomer, unassigned) [Example 336, 3-(cyanomethyl)-3-[4-(2-{[4-(2-oxopiperidin-1-yl)phenyl]amino}pyrimidin-4-yl)-1H-pyrazol-1-yl]cyclobutanecarbonitrile] | < 100
26 | N#CCC1(n2cc(-c3ccnc(Nc4ccc(N5CCCOC5=O)cc4)n3)cn2)CC(C#N)C1 (single isomer, unassigned) [Example 337, 3-(cyanomethyl)-3-[4-(2-{[4-(2-oxo-1,3-oxazinan-3-yl)phenyl]amino}pyrimidin-4-yl)-1H-pyrazol-1-yl]cyclobutanecarbonitrile] | < 100
27 | N#CCC1(n2cc(-c3ccnc(Nc4ccc(N5CCOCC5=O)cc4)n3)cn2)CC(C#N)C1 (single isomer, unassigned) [Example 338, 3-(cyanomethyl)-3-[4-(2-{[4-(3-oxomorpholin-4-yl)phenyl]amino}pyrimidin-4-yl)-1H-pyrazol-1-yl]cyclobutanecarbonitrile] | < 100
28 | N#CCC1(n2cc(-c3ccnc(Nc4ccc(N5CCOC5=O)cc4)n3)cn2)CC(C#N)C1 (single isomer, unassigned) [Example 339, 3-(cyanomethyl)-3-[4-(2-{[4-(2-oxo-1,3-oxazolidin-3-yl)phenyl]amino}pyrimidin-4-yl)-1H-pyrazol-1-yl]cyclobutanecarbonitrile] | < 100
